Data published in patent publication US20090175788A1, “RADIOLABELLED LIGAND FOR THE GLYCINE 1 TRANSPORTER” (priority 2006, published 2009).

Columns and labels:
[1] = biological target: T1, glycine transporter subtype 1 (GlyT1) (Sus scrofa, UniProt A0A287AJD7); test: PET imaging with Compound A in pig brain; assay type: in vivo
T1 construct: from tissue; host or cells: brain of living anaesthetised pig (Yorkshire/Danish Landrace), in vivo PET
Description: (§1) The animals (pig, Yorkshire/Danish Landrace (˜40 Kg; n=2) were housed singly in thermostatically controlled (20° C.) and naturally illuminated stalls. They were scanned under terminal anaesthesia (ketamine induced isoflurane anaesthesia) on different days. The left femoral artery and vein of each animal were surgically cannulated using catheters (Avanti® size 4F-7F). Blood samples were collected from the femoral artery and the radiolabelled and non-labelled agents were injected into the femoral vein. Animals were placed supine in a Siemens ECAT EXACT HR tomograph, with the head immobilised in a custom-made holding device. During the study, blood pH, pCO2 and pO2 levels were monitored and maintained within the normal physiological range. In addition, BP and heart rate were recorded throughout the study. Compound A was administered intravenously into the femoral vein as a 1 minute bolus injection. PET scanning and arterial blood sampling was commenced upon start of the radioligand administration.
(§2) The PET data were analysed by using tracer kinetic modeling techniques to derive estimates of the tissue delivery (K1) and partition coefficient (PET volume of distribution—Vd). An input function representing the concentration of unchanged radiotracer in plasma was generated using discrete measures of the total plasma radioactivity and HPLC measures determining the parent radiotracer fraction. A generic tracer kinetic model (DEPICT) which estimates the tissues impulse response function was fitted to each of the individual tissue time activity curves to derive the appropriate parameters for each region (K1,Vd) (R. N. Gunn, S. R. Gunn, V. J. Cunningham. Cereb Blood Flow Metab. 2001, 21(6), 635-52; R. N. Gunn, S. R. Gunn, F. E. Turkheimer, J. A. Aston, V. J. Cunningham. J Cereb Blood Flow Metab. 2002, 22(12), 1425-39).

[2] = biological target: T1, glycine transporter subtype 1 (GlyT1); test: PET imaging with pharmacological challenges (blocking of Compound A uptake by a selective GlyT1 inhibitor); assay type: in vivo; details: pig
Description: as §1
In a first study, two sequential high specific activity iv radioligand Compound A administrations were performed in same animal on the same day.
as §2

T1 sequence (A0A287AJD7 1-654): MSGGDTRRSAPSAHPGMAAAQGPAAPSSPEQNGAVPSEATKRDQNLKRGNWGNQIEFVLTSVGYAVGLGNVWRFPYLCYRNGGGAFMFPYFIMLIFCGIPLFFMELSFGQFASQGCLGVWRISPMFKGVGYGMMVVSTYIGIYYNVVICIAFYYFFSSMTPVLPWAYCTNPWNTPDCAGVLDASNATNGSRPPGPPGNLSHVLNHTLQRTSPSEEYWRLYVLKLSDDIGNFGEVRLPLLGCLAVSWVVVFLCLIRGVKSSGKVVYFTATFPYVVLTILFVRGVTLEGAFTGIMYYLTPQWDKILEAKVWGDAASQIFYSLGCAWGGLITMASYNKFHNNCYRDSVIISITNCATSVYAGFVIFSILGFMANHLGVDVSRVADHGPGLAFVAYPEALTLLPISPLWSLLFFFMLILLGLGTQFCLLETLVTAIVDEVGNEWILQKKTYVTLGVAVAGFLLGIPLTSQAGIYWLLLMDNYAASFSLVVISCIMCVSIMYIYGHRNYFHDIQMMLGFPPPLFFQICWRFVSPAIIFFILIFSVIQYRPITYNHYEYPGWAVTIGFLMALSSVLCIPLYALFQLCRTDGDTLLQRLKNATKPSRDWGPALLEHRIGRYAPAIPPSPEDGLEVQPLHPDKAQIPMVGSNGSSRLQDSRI

| SMILES | regional brain distribution ([1]; pig brain, PET, compared with the known distribution of GlyT1) | time of peak brain uptake of radioactivity after administration ([1]; pig brain, iv, PET) [min] | brain entry of radiotracer ([1]; pig, iv 1 minute bolus, PET 0 to 90 min) | Extraction fraction (K1) ([1]; pig, stable across brain regions, tracer kinetic model (DEPICT)) [min⁻¹] | effect on Compound A uptake in the brain ([2]; escalating iv doses 0.001, 0.01 and 0.1 mg/kg, 5 min prior to Compound A) | GlyT1 saturation (occupancy) ([2]; high dose 0.5 mg/kg iv) | effect on specific uptake of radiotracer Compound A ([2]; high iv dose 0.5 mg/kg, 5 minutes prior to Compound A) | ED50 ([2]; increasing iv doses, PET, read-out: intravenous ED50 (change in Compound A derived Vd)) [mg/kg] | effect of pretreatment on K1 of Compound A ([2]; iv pretreatment) |
| --- | --- | --- | --- | --- | --- | --- | --- | --- | --- |
| Cc1cccc(C)c1C(=O)NC(c1ccccc1)C1(N(C)[11CH3])CCCC1 (stereo not drawn) [Compound A, [^11C—N-methyl]-N-[[1-(dimethylamino)cyclopentyl](phenyl)methyl]-2,6-dimethylbenzamide] | higher accumulation in mid-brain, thalamus and cerebellum compared to cortical regions | 25 | readily enters the pig brain | 0.06 | – | – | – | – | – |
| CN1CCCC[C@H]1[C@@H](NC(=O)c1cccc(C(F)(F)F)c1Cl)c1ccccc1 [2-chloro-N—[(S)-[(2S)-1-methyl-2-piperidinyl](phenyl)methyl]-3-(trifluoromethyl)benzamide] | – | – | – | – | dose-dependent decrease of compound A uptake in the brain | near complete GlyT1 saturation | the specific uptake of radiotracer was blocked | 0.0225 | not altered |
